Experimental data as given in patent US8592394B2, “Synthetic derivatives beta glycolipids and compositions thereof for the treatment of pathologic disorders” (Enzo Therapeutics, Inc., priority 2003, dated 2013).

Assays:
ConA induced hepatitis = ConA induced hepatitis model: serum AST and ALT (liver injury); type: in vivo, mice; settings: for enzyme levels (serum ALT and AST): Con A
Experimental: The effect of β-glycolipids on liver injury was evaluated by serum aspartyl transaminase (AST) and alanine aminotransferase (ALT) activities, which were determined by a clinical chemistry analyzer, Reflovet Plus (Roche Diagnostics, GmbH, Mannheim, Germany).
Con A was purchased from MP Biomedicals (Ohio, USA), was dissolved (0.5 mg, 20 mg/kg) in 200 μl of 50 mM Tris pH 7, 150 mM NaCl, 4 mM CaCl2, and was injected intravenously into mice (tail vain). Sera from individual mice were obtained 8 or 20 h after Con A injection. Serum activities of alanine aminotransferase (ALT) and aspartate aminotransferase (AST) were measured by an automatic analyzer.
To determine the clinical and immunological effect of the novel synthetic compounds of the invention, immune-mediated hepatitis was examined using the ConA induced hepatitis model. Therefore, the different synthetic and natural derivatives of β-glycolipids of Formula II, III and IV [AD2897 (ALIB-97), AD2898, and AD2899, respectively], were examined using seven groups of C57Bl/6 mice, as summarized by Table 1. Mice in experimental groups A-G (eight mice in each group) were injected with ConA. Group A mice were administered with 100 μl intraperitoneal injection of solvent only [15% Cremophor EL/15% ethanol/70% PBS](C:E). Mice in groups B, C, D, E, F, and G were administered with intraperitoneal injection of 1 μg or 10 μg of each of the three analogs Formulated in solvent as described in Experimental Procedures. Animals were sacrificed and examined.
In order to evaluate the potential beneficial effect of the three novel analogues of the invention on immune-mediated hepatitis, the effect of treatment with two concentrations of the three synthetic analogs on liver damage in all tested groups was assessed by determination of serum aspartate aminotransferase (AST), and alanine aminotransferase (ALT) levels.

IFN-γ = test: Serum IFN-γ by sandwich ELISA in ConA induced hepatitis; type: in vivo, mice
Experimental: (§1) Serum levels of IFN-γ, TGF-β, TNF-α IL-2, IL-4, IL-6, IL-10 and IL-12 were determined by “sandwich” ELISA, using commercial kits (Quantikine, R&D Systems, Minneapolis, Minn., USA). Serum insulin was also determined by “sandwich” ELISA too, using the commercial kit of Mercodia AB (Uppsala, Sweden) according to the manufacturer's instructions.
Assessment of the effect of any of the synthetic analogs on the immune response was next determined by analysis of the cytokine serum level of IFNγ in each animal using a commercial “sandwich” ELISA kit, and by FACS analysis of intrahepatic and intrasplenic (peripheral) lymphocytes levels.

IL-4 = test: Serum IL-4 by ELISA in ConA induced hepatitis; type: in vivo, mice; settings: intraperitoneal, data not shown
Experimental: as §1

mouse splenocytes = test: In vitro stimulation of splenocytes: supernatant IFN-γ by ELISA; type: cell-based
Experimental: Splenocytes were prepared as described above and plated at 2.0×10^5 cells per well in 96-well plates in RPMI-1640 supplemented with 5% FCS, […] 2-mercaptoethanol, 2 mM glutamine, 1% sodium pyruvate, and antibiotics. Titrated volumes of GC, α-GalCer, and ALIB-97 diluted in DMSO were added at final concentrations of 100 ng, 1 μg, and 10 μg/ml. After 72 h of culture, 1 μCi of [^3H] thymidine (Amersham Biosciences) was added to each well, and the cells were cultured for an additional 16 to 18 h. Cells were harvested with a cell harvester (Tomtec, Orange, Conn.), and the uptake of radioactivity was measured with a β-plate reader. To evaluate IFN-γ secretion in vitro, supernatants were harvested after 90 h of culture with glycolipids and stored until the cytokine levels were measured by ELISA.

STAT6 = test: Immunoblot of liver lysates: STAT6; type: in vivo, mice; settings: IP
Experimental: For ConA induced hepatitis experiments spleen and liver lysates were lysed in RIPA buffer containing 50 mM Tris, pH 7.4, 1% NP-40, 150 mM NaCl, 0.1% SDS, 0.5% sodium deoxycholate and protease inhibitors (5 μg/ml, Sigma), with protease and phosphatase (Sigma, Rehovot, Israel).
(§2) Lysates were centrifuged twice at 4° C. for 10 minutes in 14000 rpm. Equivalent amounts of lysates (15 μg/lane), determined by Bradford assay (Bio-Rad, Rehovot, Israel), were separated by sodium dodecyl sulfate polyacrylamide gel electrophoresis (SDS-PAGE) and transferred to nitrocellulose membranes.
For ConA induced hepatitis experiments proteins were detected with phospho-specific STAT1-Tyr701, STAT6-Tyr641, STAT1, and STAT6 antibodies from Cell Signaling. β-actin (abcam, UK) was used as a loading control.
(§3) Blots were developed with horseradish peroxidase-conjugated secondary antibodies (Jackson Laboratories Bar Harbor, Me.) and Western Blot-Luminol Reagent (Santa Cruz Biotechnology, CA, USA). Cell counting and western Blot quantification was performed using total Lab (Phoretix, USA) software.

AKT = test: Western blot of liver extracts of ob/ob mice: AKT activation; type: in vivo; settings: per os daily 4 weeks, 15 μg (group D)
Experimental: For analysis of whole tissue lysates, snap-frozen liver pieces were homogenized in 0.75 ml of ice-cold PBS and centrifuged at 4° C. for 5 min in 2000 rpm. Pellets were lysed with 50 mM beta glycerophosphate, 1.5 mM EGTA, PH 7.3, 1 mM EDTA, PH 7.3, 1 mM DTT, 0.1 mM Sodium vanadate, 1% NP-40, and cocktails of protease and phosphatase (Sigma, Rehovot, Israel).
as §2
For metabolic syndrome experiments, proteins were detected with JNK-2, Phospho JNK (Thr183/Tyr185), Akt and phospho Akt (Ser 473) antibodies (Cell Signaling Technologies, MA). β-actin (abcam, UK) was used as the loading control.
as §3
Therefore, five groups of male C57BL/6 Ob/Ob mice were studied. […]

[1] = B6 mice, intraperitoneal, Con A hepatitis, p<0.05
[2] = B6 mice, oral administration, 20 h after Con A injection, vs control p<0.01
[3] = ConA induced hepatitis, C57Bl/6 mice, intraperitoneal, 10 μg/mice

For `CCCCCCCCCCCCCC=CC(O)C(CO[C@@H]1OC(CO)[C@@H](O)C(O)C1O)NC(=S)NC12CC3CC(CC(C3)C1)C2` (stereo in doubt) [ALIB-97, N-adamantyl-N′-glucosylsphingosine thiourea], the “reduction of serum ALT levels” value (ConA induced hepatitis; [1]) was “more than 60%”, the “reduction of serum AST levels” value (ConA induced hepatitis; [1]) was “more than 60%” and the “serum ALT levels” value (ConA induced hepatitis; [2]) was “significantly reduced”. The “serum AST levels” value (ConA induced hepatitis; [2]) was “significantly reduced”, the “enzyme levels (serum ALT and AST)” value (ConA induced hepatitis; CD1d−/− mice, intraperitoneal) was “did not significantly alter” and the “serum ALT levels” value (ConA induced hepatitis; [3]) was “decreased”. For the same molecule, the “serum AST levels” value (ConA induced hepatitis; [3]) was “decreased”, the “liver damage induced by Con A treatment” value (ConA induced hepatitis; Jα18 KO mice) was “exacerbated” and the “enzyme levels (serum ALT and AST)” value (ConA induced hepatitis; Jα18−/− mice, intraperitoneal) was “did not significantly alter”. The “serum IFN-γ levels” value (IFN-γ; B6 mice, intraperitoneal) was “marked decrease”, the “serum IFN-γ levels” value (IFN-γ; B6 mice, oral administration, after 20 hours, vs control p<0.01) was “significant decrease” and the “serum IFN-γ levels” value (IFN-γ; CD1d−/− KO mice, intraperitoneal) was “did not significantly alter”. For the same molecule, the IFNγ serum levels (IFN-γ; ConA induced hepatitis, C57Bl/6 mice, intraperitoneal, low dosage 1 μg/mice) was “decrease”, the “serum IFN-γ levels” value (IFN-γ; Jα18−/− mice, intraperitoneal) was “substantial increase” and the “serum levels of IL-4” value (IL-4) was “did not affect”. For the same molecule, the IFN-γ secretion (mouse splenocytes; CD1d−/− splenocytes) was “absence”, the IFN-γ secretion (mouse splenocytes; Jα18−/− splenocytes) was “absence” and the “activation of IFN-γ secretion” value (mouse splenocytes; mouse (B6) splenocytes, 100 ng) was “more than 9 fold”. For the same molecule, the “STAT6 expression in the liver” value (STAT6; B6 mice) was “slightly increased”, the “STAT6 expression in the liver” value (STAT6; CD1d−/− mice) was “markedly induced” and the AKT activation (AKT) was “decreased”.
